Experimental data from a melting point compilation (Tetko et al.; mined from patent text by program, amines drawn as free bases though some values may be those of a salt).

Row | melting point [°C] | Structure (SMILES)
1 | 164 | CCCCOc1cc(/C=C(\OCC)C(=O)O)ccc1OCCc1ccc(NC(=O)CC)cc1
2 | 243 to 245 | O=C(O)Cn1c(-c2cccc(F)c2)nc2cccnc21
3 | 115 to 117 | O=Cc1ccn(-c2c(Cl)cc(C(F)(F)F)cc2Cl)c(=O)c1
4 | 220 | O=c1nc(-c2cccc(Cl)c2)c2cc(C3(c4ccc(Cl)cc4)OCCO3)ccc2[nH]1
5 | 118 to 120 | COc1ccc(C)cc1NC(=O)Nc1ccc(N2CCCN(C(=O)Nc3ccc(OCCO)cc3C(F)(F)F)CC2)cc1
6 | 191 | COC(=O)c1cc(N2CCCC2)c(Oc2ccccc2)c(S(N)(=O)=O)c1
7 | 140 to 142 | CN(C)C(=O)Sc1ccc2ccncc2c1Cl
8 | 207 to 210 | CCCC(=O)Nc1cc(/C=C/C(=O)N2CC(CCl)c3ccc(NC(=O)OCc4ccc([N+](=O)[O-])cc4)cc32)n(C)c1 (stereo unspecified)
9 | 168 to 170 | CNS(=O)(=O)c1cc(O)ccc1OC(=O)c1ccccc1
10 | 107 to 113 | Cc1nc2c(-c3cccc(N4CCN(C)CC4)c3)cnn2c(N)c1-c1cccc(Br)c1
11 | 177 to 179 | CC(=O)ON=c1c2nccc3cccc(c32)n2cccc12
12 | 250 to 253 | CC(N)(C(=O)O)c1ccc(NC=C2C(=O)NC(=O)c3ccc(Br)cc32)cc1 (stereo unspecified)
13 | 245 to 247 | CNS(=O)(=O)c1ccc(CCN2CC=C(c3c[nH]c(-c4ccc(F)cc4)c3-c3ccncc3)CC2)cc1OC
14 | 227 to 228 | O=C(CCc1cccc(C(F)(F)F)c1)NNC(=O)c1ccc2[nH]ncc2c1
15 | 170 to 172 | CCN(CC)S(=O)(=O)c1ccccc1S(=O)(=O)NC(=O)Nc1nc(C)cc(OC)n1
16 | 85 to 86 | Fc1cccc(F)c1C1=NC(C2(OC(F)(F)F)C=CC(c3ccccc3)=CC2)CS1 (stereo unspecified)
17 | 96 to 98 | O=[N+]([O-])c1ccc(O)c(C=NCCC(F)=C(F)F)c1
18 | 118 to 120 | CCCc1cnc(N2CCC(c3ccc(COc4ccc(C#N)c(F)c4)nc3)CC2)nc1
19 | 145 to 147 | O=C1CCC(c2nc(-c3ccccc3)c(-c3ccccc3)o2)N1 (stereo unspecified)
20 | 86 to 89 | ClCc1ccc(-c2nsc3ccccc23)cc1
21 | 97 | COC(=O)CCCc1cc2nc(C(F)(F)F)ccc2n1S(=O)(=O)c1ccc(Cl)cc1

Row | melting point [°C] | Structure (SMILES)
22 | 145 | CCN(CC)C(=O)c1cc2ccc(Cl)cc2c(-c2ccccc2Cl)n1
23 | > 220 | C(=Cc1cnc2[nH]c3ccccc3c2c1)c1ccccc1
24 | 194 to 195 | CCC(=O)N(C)c1c(C(=O)c2cccc(Cl)c2)[nH]c2cc(Cl)ccc12
25 | 69 to 71 | COC(=O)c1csc(-c2cc3ccccc3[nH]2)n1
26 | 109 to 111 | Nc1c(F)c(Cc2ccc(F)cc2)nc(C=O)c1Cl
27 | 150 to 153 | O=C(c1ccccc1)c1ccc(NC(=O)c2cc(Cl)ccc2Cl)cc1
28 | 132 to 135 | CCNc1ccc(C(=O)OC)cc1
29 | 85 to 87 | CSc1ccc2oc3ccccc3c2c1
30 | 248 to 251 | COc1c(F)c(F)cc2c(O)c(C(=O)NCc3ccc(Cl)cc3)cnc12
31 | 290 | NS(=O)(=O)c1ccc(-c2cc(-c3nc(-c4ccc(Cl)cc4)cc(C(F)(F)F)n3)ccn2)s1
32 | 119 to 122 | COc1ccc([C@H]2CCCC[C@H]2NC(=O)c2ccc(C(=O)c3ccccc3)cc2)cc1OC
33 | 51 to 52 | COC(=O)c1cc(C(F)(F)F)ccc1N
34 | 128 | COc1cc(CSc2ccc(O)cc2)cc(OC)c1O
35 | 170 to 172 | O=C1CCC(N2Cc3c(OCc4ccc5ncc(CN6CCOCC6)n5c4)cccc3C2=O)C(=O)N1 (stereo unspecified)
36 | 36 to 37 | FC(F)(F)c1ccc(Cl)cn1
37 | 154 | O=C(O)CCOCCCc1ccnc(-c2nc(=O)c3ccccc3s2)c1
38 | 108 to 109 | CCCOc1ccc(C(=O)O)c(OCc2ccc(OCCc3nc(-c4ccccc4)oc3C)cc2)c1
39 | 150 to 155 | COc1ccc(C(OCC2OC(n3cnc4c(=O)[nH]c(NC(=O)Cc5ccc(Cl)c(Cl)c5)nc43)CC2O)(c2ccccc2)c2ccc(OC)cc2)cc1 (stereo unspecified)
40 | 129 to 132 | CCOC(=O)c1cnc2sc(SCc3ccccc3)nn2c1=O
41 | 128 | O=c1n(Cc2ccccc2)c2cc(Cl)ccc2n1C1CCNCC1

The next lines start with the compound.

Row | Structure (SMILES) | melting point [°C]
42 | O=Cc1cccc(Cl)n1 | 136
43 | CCCCc1ccc(COC(=O)NC2CN3CCC2CC3)cc1 (stereo unspecified) | 174 to 175
44 | NNc1cnc(-c2ccccc2)cn1 | 98 to 99
45 | CC(C)(C)NC(=O)[C@@H]1CCCN1C(=O)[C@@H](O)[C@H](Cc1ccccc1)NC(=O)[C@H](CC(N)=O)NC(=O)COc1ccc(NC(=O)OCc2ccccc2)cc1 | 103 to 105
46 | Cc1c(F)c(N2CCN(C)CC2)c(C)c2c1c(=O)c(C(=O)O)cn2C1CC1 | 205 to 206
47 | O=C1N(N(c2ccccc2)c2ccccc2)c2ccccc2C1(Cc1ccncc1)Cc1ccncc1 | 184 to 186
48 | Cc1onc(-c2ccco2)c1-c1ccccc1 | 93 to 96
49 | COc1ccc(N2CCOCC2)c2sc(-c3nc4c([nH]3)CCN(C(=O)c3ccccc3C)CC4)nc12 | 194 to 196
50 | CC(=O)SC(CC(=O)c1cccc(Cl)c1)C(=O)O (stereo unspecified) | 85 to 86
51 | CCOC(=O)COc1ccc2c(c1[N+](=O)[O-])C(=O)CC2 | 137 to 139
52 | COc1cc2cc3c(=O)[nH]cnc3cc2cc1OCCN1CCOCC1 | 230 to 232
53 | CC[Si](C)(C)CCCCCCCCC1=C(O)C(=O)c2ccccc2C1=O | 39 to 41
54 | Cc1nn(-c2c(Cl)cc(C(F)(F)F)cc2Cl)c(N)c1I | 116 to 118
55 | CCCCCCCCCCCCC#CCO | 36 to 37
56 | CCCc1nc(C)n2[nH]c(=O)nc2c1Br | 221
57 | COC(=O)c1ncn(Cc2ccc([N+](=O)[O-])cc2)n1 | 175 to 177
58 | CCOC(C)=C(C#N)C(=O)Nc1ccccc1C | 179 to 181
59 | COc1cc(C)ccc1Oc1ccc(C=O)cc1C#N | 112 to 113
60 | C#Cc1c(-n2ccnc2)nc(C)nc1C(F)(F)F | 121 to 122
61 | CCCn1c(-c2ccc(-n3ccnc3)cc2)cnc1[C@H](Cc1ccccn1)N(C=O)c1cc2cc(Br)ccc2o1 | 93 to 99

Row | Structure (SMILES) | melting point [°C]
62 | COc1cc(Cc2cnc(N)nc2N)c2c(c1OC)OCC=C2 | 232 to 234
63 | CCCCOc1ccc(S(=O)(=O)C2(C(=O)O)CCN(Cc3ccc(OCCN4CCCCC4)cc3)CC2)cc1 | 98
64 | CCC(=C(N)N)[N+](=O)[O-] | 114 to 116
65 | CCOC(=O)Sc1cc(C)nc(C(Cl)(Cl)Cl)n1 | 33 to 34.5
66 | CC(=O)N1CS(=O)c2c1cc(C)cc2[N+](=O)[O-] (stereo unspecified) | 141
67 | CCn1cc(C(=O)O)c(=O)c2c(F)c(F)c(N3CCSCC3)c(F)c21 | 308 to 310
68 | C[C@]1(CN2CCC(c3ccccc3)CC2)Cn2cc([N+](=O)[O-])nc2O1 | 159 to 164
69 | OCC1CNC2Cc3c[nH]c4cccc(c34)C2(O)C1 (stereo unspecified) | 145 to 149
70 | N#CCCSc1nnsc1-c1ccccc1 | 63.5 to 64.5
71 | CCc1c(OC)nc2nc(-c3nc(C)no3)cn2c1C | 204 to 205
72 | COc1cc2ncnc(N3CCN(C(=O)Nc4ccc(OC(C)C)cc4)CC3)c2cc1OC | 220 to 222
73 | CC(=O)O/N=C(\C)[C@H]1CC[C@H]2[C@@H]3CCC4=CC(=O)CC[C@]4(C)[C@H]3CC[C@]12C | 158 to 160
74 | CCCc1nc(C)cn1-c1nc(OC)ccc1N | 124 to 128
75 | CN1CCC(OC2c3ccccc3CCn3c(I)cnc32)CC1 (stereo unspecified) | 163
76 | CNc1c([N+](=O)[O-])ccc(Sc2ccccc2)c1Cl | 79
77 | CN1C(=O)NCc2cc(Br)cnc21 | 216 to 217
78 | Cc1cc(C(C)(C)C)c(O)c2c1C1CCCCC1C2=O (stereo unspecified) | 77 to 78
79 | OCC1OC(n2cnc3c(N4CCOCC4)ncnc32)CC1F (stereo unspecified) | 175 to 178
80 | CCOC(=O)c1[nH]cc2c1NC1=C(C(=O)CCC1)C2c1ccc(Sc2nc3c(F)c(F)c(F)cc3[nH]2)o1 (stereo unspecified) | 186
81 | CCOC(=O)C1CCN(C(=O)OC)CC1=O (stereo unspecified) | 36 to 38

Row | Structure (SMILES) | melting point [°C]
82 | CNCC(=O)NC(=O)N(CCCl)N=O | 86 to 88
83 | N#Cc1nn(-c2c(Cl)cc(C(F)(F)F)cc2Cl)c(N)c1-c1cccc2ccccc12 | 208
84 | CN(Sc1nc2ccccc2s1)C(=O)Oc1cccc2c1OC(C)(C)C2 | 92 to 93
85 | CC1COP(=O)(Cc2ccc([N+](=O)[O-])cc2)OC1 (stereo unspecified) | 170 to 171
86 | Cc1nc(SCc2cnccc2C(=O)O)sc1CC(=O)O | 207 to 211
87 | Cc1nc(Br)cnc1N | 51 to 52
88 | CNCCC1CCc2cc(OCc3ccc(-c4ccccc4)cc3)ccc2C1 (stereo unspecified) | 75 to 76
89 | NC(=S)Nc1ccccc1-c1ccc(Cl)cc1 | 175 to 177
90 | CCOC(=O)CCCCCCCn1cnc(-c2ccccc2)c1 | 56 to 57
91 | N=C(N)Nc1nc2cc(Cl)cc(Cl)c2[nH]1 | 264 to 265
92 | CCOC(=O)C(C)(C(=O)OCC)C1CCCC(=O)C1 (stereo unspecified) | 129 to 130
93 | CCCn1nc2c(N)nc3ccccc3c2c1CCCCS(=O)(=O)NC | 166 to 169
94 | CC(C)C(C)(C(N)=O)N1C(=O)c2cccnc2C1=O (stereo unspecified) | 176 to 178
95 | CC(=O)NNC1=Nc2sc(Cl)cc2C(c2ccccc2Cl)=NC1 | 211 to 213
96 | C=C1CCC2(Cc3ccccc3)C3Cc4ccc(O)cc4C2(CCN3CC2CC2)C1 (stereo unspecified) | 212
97 | O=C1CCCCN1CCCC(=O)N1CCC(C2c3ncc(Br)cc3CCc3cc(Cl)cc(Br)c32)CC1 (single isomer, unassigned; (+)) | 101 to 102
98 | CC=CCn1c(C)c(C)c2cnnc(OCc3ccco3)c21 | 84 to 85
99 | CC#CCOc1ccc(SC(CCCCCC)C(=O)O)cc1 (stereo unspecified) | 125
100 | O=C(O)[C@@H](CCN1C(=O)c2ccccc2C1=O)Oc1c(Br)cc(-c2c3ccccc3c(Br)c3sc4ccccc4c23)cc1Br | 215 to 217
101 | COc1ccc2cnc(N)nc2c1C(C)C | 112 to 113
